Measured values reported in patent publication US5532400A, “2,6-di-alkyl-4-silyl-phenols as antiatheroscelerotic agents” (Merrell Pharmaceuticals Inc., priority 1994, dated 1996).

Test system: human LDL
Experiment: Inhibition of LDL lipid peroxidation (cupric sulfate-induced, thiobarbituric acid assay)
Type: biochemical
Conditions: 250 μg human LDL, test compound 30 min at 42° C., cupric sulfate 12.5 μM, 37° C., 2.5 hours, read-out: ID50 (concentration of test compound required to inhibit 50% of LDL lipid peroxidation)
Protocol: The degree of inhibition of LDL lipid peroxidation was determined by the method of Yagi et al. [Vitamins 39, 105 (1968)].
A 0.5 mL solution containing 250 micrograms (μg) of human LDL was incubated with the test compound, in amounts varying from 0 to 30 μg, for 30 minutes at 42° C. To this mixture was added 1 mL of a cupric sulfate solution (final concentration 12.5 μM) and the mixture was incubated at 37° C. for 2.5 hours. The amount of peroxidation of LDL lipid was determined by the thiobarbituric acid assay. The concentration of test compound required to inhibit 50% of LDL lipid peroxidation (ID50) was determined.

`CC(C)(C)c1cc(SC[Si](C)(C)C)cc(C(C)(C)C)c1O` [Compound A] gave an IC50 of 2800 nM.

`CC(C)(C)c1cc(SC[Si](C)(C)c2ccccc2)cc(C(C)(C)C)c1O` [Compound B] was tested, and the IC50 was 3000 nM.
